Tested on: embryoid bodies derived from mouse embryonic stem cells
Experiment: Vascular sprouting of embryoid bodies into collagen gels
Format: cell-based
Settings: 12.5 μM COB223 added at day 6
Experimental: CJ7 cells (1000 cells/well; 12-well plates) were allowed to differentiate in collagen gels in Iscove's medium containing Glutamax (Iscove's modified Dulbecco's medium; Invitrogen) supplemented with 1.2 mg/mL collagen I (BD Biosciences, Bedford, MA), 15% fetal calf serum (Invitrogen), 450 μM monothioglycerol (Sigma-Aldrich), 10 μg/mL insulin (Roche Diagnostics, Basel, Switzerland), 50 U/mL penicillin and 50 μg/mL streptomycin (Invitrogen), as previously described. A cocktail of growth factors was also added containing 50 ng/mL human VEGF-A (AbCys) and 100 ng/mL human FGF-2 (a generous gift from Dr. A. Baird, Whittier Institute, La Jolla, CA). At day 6, molecules were added with a novel addition of 50 ng/mL human VEGF-A and 100 ng/mL human FGF-2. Differentiation was allowed during 11 days.
Collagen gels containing EBs were dehydrated and fixed in 4% paraformaldehyde during 15 min at room temperature. […] For quantitation of endothelial sprouting, images were captured with a digital camera and measurement of the total length of endothelial sprouts was achieved by morphometric analysis using ImageJ software.

Compound: CN(C)c1cccc2c(S(=O)(=O)NCCCN3CCN(CCCNC(=O)OC(C)(C)C)CC3)cccc12 [COB223, tert-Butyl 3-(4-(3-(5-(dimethylamino)naphthalene-1-sulfonamido)propyl)piperazin-1-yl) propylcarbamate]
- endothelial sprouting (CD31 immunostaining): complete inhibition

Reference: paper PMC4467156, “A new chemical inhibitor of angiogenesis and tumorigenesis that targets the VEGF signaling pathway upstream of Ras” (Oncotarget, 2015)
